In patent publication US9062124B2, “GIP-based mixed agonists for treatment of metabolic disorders and obesity” (priority 2008, dated 2015):
Like-named read-outs stand apart in the source and are kept apart here. Where a SMILES comes first, the peptide text is derived from it. Bridges are numbered along the chain shown (N, C = ends). [ ]: non-standard residue; d: D form. The star is where a group is joined. Palmitoyl = CCCCCCCCCCCCCCCC(=O)*; Aib = CC(C)(N)C(=O)O

What was measured:
Format in all cases: cell-based
glucagon receptor = target: T1, glucagon receptor (Homo sapiens, UniProt P47871); assay: cAMP synthesis functional assay (firefly luciferase reporter in HEK293 cells), glucagon receptor
T1 construct: expressed in transfected cells; host or cells: HEK293
T1 sequence (P47871 26-477): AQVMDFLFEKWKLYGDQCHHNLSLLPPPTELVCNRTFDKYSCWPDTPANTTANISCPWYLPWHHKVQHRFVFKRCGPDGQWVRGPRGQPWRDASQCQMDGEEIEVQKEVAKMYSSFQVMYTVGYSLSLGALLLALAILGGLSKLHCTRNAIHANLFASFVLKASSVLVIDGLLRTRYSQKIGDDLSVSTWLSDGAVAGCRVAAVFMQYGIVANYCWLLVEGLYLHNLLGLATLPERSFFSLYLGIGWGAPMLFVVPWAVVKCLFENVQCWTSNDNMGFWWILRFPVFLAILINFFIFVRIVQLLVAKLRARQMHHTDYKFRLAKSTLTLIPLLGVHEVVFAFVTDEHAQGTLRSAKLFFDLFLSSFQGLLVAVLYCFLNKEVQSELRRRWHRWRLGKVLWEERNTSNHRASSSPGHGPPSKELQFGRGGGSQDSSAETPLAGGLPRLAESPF

GLP-1 receptor = target: T2, GLP-1 receptor (Homo sapiens, UniProt P43220); assay: cAMP synthesis functional assay (firefly luciferase reporter in HEK293 cells), GLP-1 receptor; details: for EC50: GLP-1 Receptor EC50, cAMP luciferase reporter assay as in Example 16
T2 construct: expressed in transfected cells; host or cells: HEK293
T2 sequence (P43220 24-463, species assumed): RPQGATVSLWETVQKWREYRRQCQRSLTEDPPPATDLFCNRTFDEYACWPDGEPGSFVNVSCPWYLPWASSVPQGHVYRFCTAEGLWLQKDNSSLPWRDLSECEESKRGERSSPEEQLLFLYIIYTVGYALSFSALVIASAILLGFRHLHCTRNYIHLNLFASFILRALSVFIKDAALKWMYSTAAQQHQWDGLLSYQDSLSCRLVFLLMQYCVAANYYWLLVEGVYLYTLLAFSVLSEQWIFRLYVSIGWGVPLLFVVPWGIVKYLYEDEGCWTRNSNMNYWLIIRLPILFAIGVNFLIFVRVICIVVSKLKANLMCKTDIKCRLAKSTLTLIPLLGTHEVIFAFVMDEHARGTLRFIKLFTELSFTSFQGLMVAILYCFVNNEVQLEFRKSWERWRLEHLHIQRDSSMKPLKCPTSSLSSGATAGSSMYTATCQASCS

GIP receptor = target: T3, GIP receptor (Homo sapiens, UniProt P48546); assay: cAMP synthesis functional assay (firefly luciferase reporter in HEK293 cells), GIP receptor
T3 construct: expressed in transfected cells; host or cells: HEK293
T3 sequence (P48546 22-466): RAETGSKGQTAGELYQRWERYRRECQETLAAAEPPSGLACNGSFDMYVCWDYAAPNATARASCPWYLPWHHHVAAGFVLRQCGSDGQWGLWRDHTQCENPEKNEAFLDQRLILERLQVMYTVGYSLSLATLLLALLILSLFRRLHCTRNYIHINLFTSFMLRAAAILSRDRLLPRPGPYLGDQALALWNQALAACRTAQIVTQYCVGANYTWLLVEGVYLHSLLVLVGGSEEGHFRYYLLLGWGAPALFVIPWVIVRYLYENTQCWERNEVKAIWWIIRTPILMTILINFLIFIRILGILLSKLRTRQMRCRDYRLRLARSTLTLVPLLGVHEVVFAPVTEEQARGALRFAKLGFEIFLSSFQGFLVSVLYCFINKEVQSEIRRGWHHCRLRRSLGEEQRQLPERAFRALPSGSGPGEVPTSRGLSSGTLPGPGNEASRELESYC

[1] = Glucagon Receptor EC50, cAMP luciferase reporter assay as in Example 16
[2] = relative to the standard (Std.) EC50 of the same run
[3] = Table 1, relative to the native hormone of the indicated receptor
[4] = Table 4, relative to the native hormone

Compound: CCCCCCCCCCCCCCCC(=O)NCCCC[C@H](NC(=O)[C@H](CC(=O)O)NC(=O)[C@H](CO)NC(=O)[C@@H](NC(=O)[C@H](Cc1ccccc1)NC(=O)[C@@H](NC(=O)CNC(=O)[C@H](CCC(=O)O)NC(=O)C(C)(C)NC(=O)[C@@H](N)Cc1ccc(O)cc1)[C@@H](C)O)[C@@H](C)O)C(=O)N[C@@H](CO)C(=O)N[C@H](C(=O)N[C@@H](Cc1ccc(O)cc1)C(=O)N[C@@H](CC(C)C)C(=O)N[C@@H](CC(=O)O)C(=O)N[C@@H](CCCCN)C(=O)N[C@@H](CCC(N)=O)C(=O)N[C@@H](C)C(=O)N[C@@H](C)C(=O)NC(C)(C)C(=O)N[C@@H](CCC(=O)O)C(=O)N[C@@H](Cc1ccccc1)C(=O)N[C@H](C(=O)N[C@@H](CC(N)=O)C(=O)N[C@@H](Cc1c[nH]c2ccccc12)C(=O)N[C@@H](CC(C)C)C(=O)N[C@@H](CC(C)C)C(=O)N[C@@H](C)C(=O)NCC(N)=O)C(C)C)[C@@H](C)CC [mt-283] (H-Y[Aib]EGTFTSDK(Palmitoyl)SIYLDKQAA[Aib]EFVNWLLAG-NH2; N-terminus assumed)
- EC50 (glucagon receptor; [1]): 7.94 nM
- Glucagon Receptor relative activity (glucagon receptor; [2]): 0.36%
- EC50 (GLP-1 receptor): 0.0158 nM
- GLP-1 Receptor relative activity (GLP-1 receptor; [2]): 37.34%
- GIP Receptor relative activity (GIP receptor; [2]): 83.61%

Compound: CCCCCCCCCCCCCCCC(=O)NCCCC[C@H](NC(=O)[C@H](CC(=O)O)NC(=O)[C@H](CO)NC(=O)[C@@H](NC(=O)[C@H](Cc1ccccc1)NC(=O)[C@@H](NC(=O)CNC(=O)[C@H](CCC(=O)O)NC(=O)C(C)(C)NC(=O)[C@@H](N)Cc1ccc(O)cc1)[C@@H](C)O)[C@@H](C)O)C(=O)N[C@@H](CO)C(=O)N[C@H](C(=O)N[C@@H](Cc1ccc(O)cc1)C(=O)N[C@@H](CC(C)C)C(=O)N[C@@H](CC(=O)O)C(=O)N[C@@H](CCCCN)C(=O)N[C@@H](CCC(N)=O)C(=O)N[C@@H](C)C(=O)N[C@@H](C)C(=O)NC(C)(C)C(=O)N[C@@H](CCC(=O)O)C(=O)N[C@@H](Cc1ccccc1)C(=O)N[C@H](C(=O)N[C@@H](CC(N)=O)C(=O)N[C@@H](Cc1c[nH]c2ccccc12)C(=O)N[C@@H](CC(C)C)C(=O)N[C@@H](CC(C)C)C(=O)N[C@@H](C)C(=O)NCC(=O)NCC(=O)N1CCC[C@H]1C(=O)N[C@@H](CO)C(=O)N[C@@H](CO)C(=O)NCC(=O)N[C@@H](C)C(=O)N1CCC[C@H]1C(=O)N1CCC[C@H]1C(=O)N1CCC[C@H]1C(=O)N[C@@H](CO)C(N)=O)C(C)C)[C@@H](C)CC [mt-270] (H-Y[Aib]EGTFTSDK(Palmitoyl)SIYLDKQAA[Aib]EFVNWLLAGGPSSGAPPPS-NH2; N-terminus assumed)
- EC50 (glucagon receptor; [1]): 306 nM
- Glucagon Receptor relative activity (glucagon receptor; [2]): 0.06%
- EC50 (GLP-1 receptor): 0.0093 nM
- GLP-1 Receptor relative activity (GLP-1 receptor; [2]): 211.83%
- EC50 (GIP receptor; GIP Receptor EC50, cAMP luciferase reporter assay as in Example 16): 0.0049 nM
- GIP Receptor relative activity (GIP receptor; [2]): 163.27%

Compound: CC[C@H](C)[C@H](NC(=O)[C@H](Cc1ccccc1)NC(=O)[C@H](CCC(=O)O)NC(=O)[C@@H]1CCC(=O)NCCCC[C@H](NC(=O)[C@H](CC(=O)O)NC(=O)[C@H](CC(C)C)NC(=O)[C@H](Cc2ccc(O)cc2)NC(=O)[C@H](CCCCN)NC(=O)[C@H](CO)NC(=O)[C@H](Cc2ccc(O)cc2)NC(=O)[C@H](CC(=O)O)NC(=O)[C@H](CO)NC(=O)[C@@H](NC(=O)[C@H](Cc2ccccc2)NC(=O)[C@@H](NC(=O)CNC(=O)[C@H](CCC(N)=O)NC(=O)[C@H](CO)NC(=O)[C@@H](N)Cc2c[nH]cn2)[C@@H](C)O)[C@@H](C)O)C(=O)N[C@@H]([C@@H](C)CC)C(=O)N[C@@H](Cc2c[nH]cn2)C(=O)N[C@@H](CCC(N)=O)C(=O)N1)C(=O)N[C@@H](C)C(=O)N[C@@H](Cc1c[nH]c2ccccc12)C(=O)N[C@@H](CC(C)C)C(=O)N[C@@H](CCSC)C(=O)N[C@@H](CC(N)=O)C(=O)N[C@H](C(N)=O)[C@@H](C)O [mt-69] (H-HSQGTFTSDYSKYLDKIHQEEFIAWLMNT-NH2; lactam 16-20; N-terminus assumed)
- EC50 (glucagon receptor; Glucagon Receptor EC50, nM, Table 1): 0.16 nM
- Glucagon Receptor relative activity (glucagon receptor; [3]): 162.50%
- GLP-1 Receptor relative activity (GLP-1 receptor; [3]): 12.20%
- EC50 (GIP receptor; GIP Receptor EC50, nM, Table 1): 14.6 nM
- GIP Receptor relative activity (GIP receptor; [3]): 0.57%

Compound: mt-377: acylated PEG-linked dimer, acylation at position 40 of each monomer (YXEGTFTSDYSIYLDKQAAXEFVNWLLAGGPSSGAPPPSKC; PEG-linked dimer, acylated at position 40; Mt-377; homodimer; Xaa is Aib; 14 Carbon fatty acyl group covalently bound to Lysine; PEG (5kDa) covalently bound to Cysteine; C-terminal amidation; Cys residue covalently attached to 5 kDa PEG which is in turn covalently attached to a Cys residue of a second peptide having the same structure)
- Glucagon Receptor relative activity (glucagon receptor; [4]): 1.98%
- EC50 (glucagon receptor; read-out: Glucagon Receptor EC50, Table 4): 3.9 nM
- GLP-1 Receptor relative activity (GLP-1 receptor; [4]): 177.88%
- GIP Receptor relative activity (GIP receptor; [4]): 138.11%

Compound: CC[C@H](C)[C@H](NC(=O)[C@H](CO)NC(=O)[C@H](Cc1ccc(O)cc1)NC(=O)[C@H](CC(=O)O)NC(=O)[C@H](CO)NC(=O)[C@@H](NC(=O)[C@H](Cc1ccccc1)NC(=O)[C@@H](NC(=O)CNC(=O)[C@H](CCC(N)=O)NC(=O)[C@H](CO)NC(=O)[C@@H](N)Cc1ccc(O)cc1)[C@@H](C)O)[C@@H](C)O)C(=O)N[C@@H](Cc1ccc(O)cc1)C(=O)N[C@@H](CCSC)C(=O)N[C@@H](CC(=O)O)C(=O)N[C@H]1CCC(=O)NCCCC[C@@H](C(=O)N[C@@H](CC(=O)O)C(=O)N[C@@H](Cc2ccccc2)C(=O)N[C@H](C(=O)N[C@@H](CC(N)=O)C(=O)N[C@@H](Cc2c[nH]c3ccccc23)C(=O)N[C@@H](CC(C)C)C(=O)N[C@@H](CC(C)C)C(=O)N[C@@H](C)C(=O)N[C@@H](CCC(N)=O)C(N)=O)C(C)C)NC(=O)[C@H](CCC(N)=O)NC(=O)[C@H](Cc2c[nH]cn2)NC(=O)[C@H]([C@@H](C)CC)NC1=O [mt-125] (H-YSQGTFTSDYSIYMDEIHQKDFVNWLLAQ-NH2; lactam 16-20; N-terminus assumed)
- Glucagon Receptor relative activity (glucagon receptor; [3]): 9.06%
- GLP-1 Receptor relative activity (GLP-1 receptor; [3]): 3.17%
- GIP Receptor relative activity (GIP receptor; [3]): 19.64%

Compound: CC[C@H](C)[C@H](NC(=O)[C@H](CO)NC(=O)[C@H](Cc1ccc(O)cc1)NC(=O)[C@H](CC(=O)O)NC(=O)[C@H](CO)NC(=O)[C@@H](NC(=O)[C@H](Cc1ccccc1)NC(=O)[C@@H](NC(=O)CNC(=O)[C@H](CCC(=O)O)NC(=O)[C@H](C)NC(=O)[C@@H](N)Cc1ccc(O)cc1)[C@@H](C)O)[C@@H](C)CC)C(=O)N[C@@H](C)C(=O)N[C@@H](CCSC)C(=O)N[C@@H](CC(=O)O)C(=O)N[C@H]1CCC(=O)NCCCC[C@@H](C(=O)N[C@@H](CC(=O)O)C(=O)N[C@@H](Cc2ccccc2)C(=O)N[C@H](C(=O)N[C@@H](CC(N)=O)C(=O)N[C@@H](Cc2c[nH]c3ccccc23)C(=O)N[C@@H](CC(C)C)C(=O)N[C@@H](CC(C)C)C(=O)N[C@@H](C)C(=O)N[C@@H](CCC(N)=O)C(N)=O)C(C)C)NC(=O)[C@H](CCC(N)=O)NC(=O)[C@H](Cc2c[nH]cn2)NC(=O)[C@H]([C@@H](C)CC)NC1=O [mt-96] (H-YAEGTFISDYSIAMDEIHQKDFVNWLLAQ-NH2; lactam 16-20; N-terminus assumed)
- Glucagon Receptor relative activity (glucagon receptor; [3]): 0.29%
- GLP-1 Receptor relative activity (GLP-1 receptor; [3]): 0.04%
- GIP Receptor relative activity (GIP receptor; [3]): 84.48%

Compound: CC[C@H](C)[C@H](NC(=O)[C@H](Cc1ccccc1)NC(=O)[C@@H](NC(=O)CNC(=O)[C@H](CCC(N)=O)NC(=O)[C@H](C)NC(=O)[C@@H](N)Cc1ccc(O)cc1)[C@@H](C)O)C(=O)N[C@@H](CO)C(=O)N[C@@H](CC(=O)O)C(=O)N[C@@H](Cc1ccc(O)cc1)C(=O)N[C@@H](CO)C(=O)N[C@@H](CCCCN)C(=O)N[C@@H](Cc1ccc(O)cc1)C(=O)N[C@@H](CC(C)C)C(=O)N[C@@H](CC(=O)O)C(=O)N[C@H]1CCC(=O)NCCCC[C@@H](C(=O)N[C@@H](CCC(=O)O)C(=O)N[C@@H](Cc2ccccc2)C(=O)N[C@H](C(=O)N[C@@H](CC(N)=O)C(=O)N[C@@H](Cc2c[nH]c3ccccc23)C(=O)N[C@@H](CC(C)C)C(=O)N[C@@H](CC(C)C)C(=O)N[C@@H](C)C(=O)NCC(=O)NCC(=O)N2CCC[C@H]2C(=O)N[C@@H](CO)C(=O)N[C@@H](CO)C(=O)NCC(=O)N[C@@H](C)C(=O)N2CCC[C@H]2C(=O)N2CCC[C@H]2C(=O)N2CCC[C@H]2C(=O)N[C@@H](CO)C(N)=O)C(C)C)NC(=O)[C@H](C)NC(=O)[C@H](C)NC(=O)[C@H](CCC(N)=O)NC1=O [mt-145] (H-YAQGTFISDYSKYLDEQAAKEFVNWLLAGGPSSGAPPPS-NH2; lactam 16-20; N-terminus assumed)
- Glucagon Receptor relative activity (glucagon receptor; [3]): 47.06%
- GLP-1 Receptor relative activity (GLP-1 receptor; [3]): 0.33%
- GIP Receptor relative activity (GIP receptor; [3]): 4.79%
